Each block holds one molecule with its values, some of them ahead of it. Where no end group is shown, it is not given here.
Key:
Rin-5F cells = test: Anti-apoptotic efficacy, cycloheximid induced apoptosis; assay type: cell-based, rat; settings: 24 hours
Procedure: 40.000 Rin-5F cells were seeded per 96 well and cultivated for 2 days in RPMI supplemented with 1% L-Glutamin and 10% fetal calf serum. […] After 24 hours cell viability is quantified using AlamarBlue.

[1] = In vitro human plasma stability of GLP-1 CM peptides; assay type: in vitro ADME; settings: 20 ng/ml, 37° C., 3 hours
Procedure: Synthetic GLP-1 peptides (SEQ ID NO: 1syn, SEQ ID NO: 6syn, SEQ ID NO: 7rec, SEQ ID NO: 8syn) were incubated at concentrations of 20 ng/ml with human plasma at 37° C. and 5% CO2, for 3 hours. Dipeptidylpeptidase activity of the plasma was inhibited by a DPP-IV inhibitor (#DPP4, Biotrend).

Molecule: GLP-1(7-37)-IP2-GLP-1(7-37) [CM1]
anti-apoptotic effect (Rin-5F cells; 1 nM CM1, cycloheximid, serum free, AlamarBlue): significant anti-apoptotic effect
cell viability (Rin-5F cells; CHX 10 μg/ml and 100 μg/ml, different concentrations of CM1): significant (p<0.01) increase of cell viability

stability in human plasma in vitro (active GLP) [1]: significantly stabilized
Molecule: HAEGTFTSDVSSYLEGQAAKEFIAWLVKGRGRRDFPEEVAIAEELG [SEQ ID NO:8, GLP-1(7-37)-IP2]

B1: GLP-1(7-37)-IP2-RR-GLP2 (protein)
chain: HAEGTFTSDVSSYLEGQAAKEFIAWLVKGRGRRDFPEEVAIAEELGRRHADGSFSDEMSTILDNLATRDFINWLIQTKITDKK
modifications: Description of sequence SEQ ID No 7 (ID7rec, CM2) corresponds to GLP-1(7-37)-IP2-RR-GLP2, 83 aa, 9.4 kD
stability in human plasma in vitro (active GLP) [1]: significantly stabilized

— patent US20140004201A1, “Treatment of Vascular Diseases Using Encapsulated Cells Encoding and Secreting GLP-1, or a Fragment or Variant Thereof” (Biocompatibles UK Ltd., priority 2010, published 2014)
